For test [1], the target named is T1, Dipeptidyl peptidase 9 (Homo sapiens, UniProt Q86TI2). In words: Inhibition of DPP9.
Target sequence in this assay (Q86TI2 whole entry): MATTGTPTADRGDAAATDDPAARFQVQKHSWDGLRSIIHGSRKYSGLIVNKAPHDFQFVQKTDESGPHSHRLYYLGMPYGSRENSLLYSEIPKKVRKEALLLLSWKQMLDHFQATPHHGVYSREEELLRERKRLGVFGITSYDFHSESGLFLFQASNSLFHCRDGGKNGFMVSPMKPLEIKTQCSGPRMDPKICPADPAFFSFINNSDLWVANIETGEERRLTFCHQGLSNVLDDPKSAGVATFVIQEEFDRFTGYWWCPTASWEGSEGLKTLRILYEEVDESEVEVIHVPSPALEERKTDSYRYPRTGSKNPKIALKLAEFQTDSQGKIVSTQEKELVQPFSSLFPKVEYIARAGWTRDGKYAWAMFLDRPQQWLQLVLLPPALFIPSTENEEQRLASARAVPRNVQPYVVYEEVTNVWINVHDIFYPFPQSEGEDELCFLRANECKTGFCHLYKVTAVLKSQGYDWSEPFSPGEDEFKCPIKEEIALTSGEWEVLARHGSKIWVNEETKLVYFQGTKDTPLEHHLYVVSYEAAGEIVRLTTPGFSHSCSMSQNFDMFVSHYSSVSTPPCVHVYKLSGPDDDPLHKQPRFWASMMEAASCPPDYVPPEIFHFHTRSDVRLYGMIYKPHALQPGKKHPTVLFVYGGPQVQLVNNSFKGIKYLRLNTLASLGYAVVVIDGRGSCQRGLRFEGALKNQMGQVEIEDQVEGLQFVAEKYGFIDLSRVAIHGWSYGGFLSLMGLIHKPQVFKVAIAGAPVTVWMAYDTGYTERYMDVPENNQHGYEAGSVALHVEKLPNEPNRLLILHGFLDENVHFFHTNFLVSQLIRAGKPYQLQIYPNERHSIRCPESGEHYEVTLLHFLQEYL
For test [2], the species on record is Rattus norvegicus. In words: animal or person. To be noted: Plasma, po, 0.5 h, read-out: INH.
Test [3] deals with T2, Dipeptidyl peptidase 4 (Homo sapiens, UniProt P27487).
For another test, the target named is Dipeptidyl peptidase 8 (Homo sapiens, UniProt Q6V1X1).
Test [4] is filed under the species Rattus norvegicus. In words: animal or person. To be noted: Plasma, po, 8 h, read-out: INH.
Test [5] concerns the target T2, Dipeptidyl peptidase 4. This is another data set of the same source.
In test [6] the target is T2, Dipeptidyl peptidase 4. This is another data set of the same source.
The target in test [7] is T1, Dipeptidyl peptidase 9. In words: Inhibition of DPP9 at 20 uM.
Target sequence in this assay (Q86TI2 2-863 limits assumed): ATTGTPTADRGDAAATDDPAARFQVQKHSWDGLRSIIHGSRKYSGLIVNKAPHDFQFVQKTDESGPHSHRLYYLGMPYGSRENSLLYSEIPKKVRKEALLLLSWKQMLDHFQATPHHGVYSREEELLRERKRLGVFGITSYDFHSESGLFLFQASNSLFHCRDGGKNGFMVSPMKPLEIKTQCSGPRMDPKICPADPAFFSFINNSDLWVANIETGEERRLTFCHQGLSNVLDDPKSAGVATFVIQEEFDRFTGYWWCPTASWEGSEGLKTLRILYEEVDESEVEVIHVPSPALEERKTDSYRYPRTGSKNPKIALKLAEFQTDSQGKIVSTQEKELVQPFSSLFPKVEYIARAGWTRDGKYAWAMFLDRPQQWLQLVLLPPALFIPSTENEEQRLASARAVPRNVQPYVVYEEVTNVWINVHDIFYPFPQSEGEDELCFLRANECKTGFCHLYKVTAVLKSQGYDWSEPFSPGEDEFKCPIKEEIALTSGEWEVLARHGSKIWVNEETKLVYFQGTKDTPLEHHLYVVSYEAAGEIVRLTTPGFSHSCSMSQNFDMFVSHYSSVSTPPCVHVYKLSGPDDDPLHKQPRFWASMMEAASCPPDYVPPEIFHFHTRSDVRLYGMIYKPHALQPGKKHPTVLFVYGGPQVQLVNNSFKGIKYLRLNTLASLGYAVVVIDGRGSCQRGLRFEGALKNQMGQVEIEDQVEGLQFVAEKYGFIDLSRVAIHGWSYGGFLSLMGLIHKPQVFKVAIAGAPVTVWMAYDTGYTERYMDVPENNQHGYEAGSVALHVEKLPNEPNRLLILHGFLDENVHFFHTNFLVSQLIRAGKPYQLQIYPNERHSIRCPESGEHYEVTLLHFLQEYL
The target in a further test is Dipeptidyl peptidase 2 (Homo sapiens, UniProt Q9UHL4). In words: Inhibition of DPP2.
Another test addresses T3, Prolyl endopeptidase FAP (Homo sapiens, UniProt Q12884).
T3 sequence (Q12884 whole entry): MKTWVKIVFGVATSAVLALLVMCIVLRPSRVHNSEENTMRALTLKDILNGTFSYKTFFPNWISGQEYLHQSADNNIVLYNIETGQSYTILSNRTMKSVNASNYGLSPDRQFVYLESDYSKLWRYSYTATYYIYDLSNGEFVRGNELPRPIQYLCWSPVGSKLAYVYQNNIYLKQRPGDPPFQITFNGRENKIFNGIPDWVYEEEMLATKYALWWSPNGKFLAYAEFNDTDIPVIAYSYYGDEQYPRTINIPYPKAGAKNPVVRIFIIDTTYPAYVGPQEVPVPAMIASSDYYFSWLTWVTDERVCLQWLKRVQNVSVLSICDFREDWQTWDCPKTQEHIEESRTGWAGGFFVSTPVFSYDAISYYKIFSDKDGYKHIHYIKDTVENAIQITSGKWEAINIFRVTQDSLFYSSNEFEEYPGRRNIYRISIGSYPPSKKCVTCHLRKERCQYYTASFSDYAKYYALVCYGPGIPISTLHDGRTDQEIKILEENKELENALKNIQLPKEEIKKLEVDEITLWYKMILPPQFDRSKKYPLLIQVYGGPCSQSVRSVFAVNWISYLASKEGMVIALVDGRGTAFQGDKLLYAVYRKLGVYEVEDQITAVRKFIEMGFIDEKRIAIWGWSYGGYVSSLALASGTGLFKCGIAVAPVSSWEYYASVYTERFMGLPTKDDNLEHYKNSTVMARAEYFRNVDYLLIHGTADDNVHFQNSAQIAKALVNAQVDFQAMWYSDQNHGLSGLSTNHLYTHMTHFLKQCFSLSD
In words: Inhibition of FAP.

The species entered for another test is Mus musculus. In words: animal or person. To be noted: Plasma, po, 4 h, read-out: INH.

Where only a bound is given, the exact number is not on record here.

Dipeptidyl peptidase 8, sequence (Q6V1X1 whole entry): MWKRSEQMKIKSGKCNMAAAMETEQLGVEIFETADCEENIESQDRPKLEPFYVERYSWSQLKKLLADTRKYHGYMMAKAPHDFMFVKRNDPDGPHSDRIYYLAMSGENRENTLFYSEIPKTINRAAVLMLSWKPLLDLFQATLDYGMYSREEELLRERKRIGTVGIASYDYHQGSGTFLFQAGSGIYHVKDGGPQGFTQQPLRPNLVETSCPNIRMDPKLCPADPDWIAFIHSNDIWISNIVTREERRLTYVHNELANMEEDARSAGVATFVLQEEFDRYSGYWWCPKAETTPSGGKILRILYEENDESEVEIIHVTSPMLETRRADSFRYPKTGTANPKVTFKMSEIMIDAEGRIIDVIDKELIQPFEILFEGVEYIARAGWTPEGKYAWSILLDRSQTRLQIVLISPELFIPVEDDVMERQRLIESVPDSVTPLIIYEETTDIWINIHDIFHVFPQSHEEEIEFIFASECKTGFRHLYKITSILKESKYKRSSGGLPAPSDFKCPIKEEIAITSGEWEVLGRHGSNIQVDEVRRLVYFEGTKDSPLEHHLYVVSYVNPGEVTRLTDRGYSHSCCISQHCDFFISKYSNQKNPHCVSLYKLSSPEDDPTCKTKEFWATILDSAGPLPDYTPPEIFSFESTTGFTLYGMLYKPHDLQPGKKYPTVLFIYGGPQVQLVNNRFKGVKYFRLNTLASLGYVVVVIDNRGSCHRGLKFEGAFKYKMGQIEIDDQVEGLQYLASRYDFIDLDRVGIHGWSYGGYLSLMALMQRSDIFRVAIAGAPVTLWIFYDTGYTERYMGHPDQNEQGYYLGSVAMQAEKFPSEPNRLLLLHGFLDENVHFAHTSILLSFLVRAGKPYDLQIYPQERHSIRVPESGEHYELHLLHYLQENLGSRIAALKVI
T2 sequence (P27487 whole entry): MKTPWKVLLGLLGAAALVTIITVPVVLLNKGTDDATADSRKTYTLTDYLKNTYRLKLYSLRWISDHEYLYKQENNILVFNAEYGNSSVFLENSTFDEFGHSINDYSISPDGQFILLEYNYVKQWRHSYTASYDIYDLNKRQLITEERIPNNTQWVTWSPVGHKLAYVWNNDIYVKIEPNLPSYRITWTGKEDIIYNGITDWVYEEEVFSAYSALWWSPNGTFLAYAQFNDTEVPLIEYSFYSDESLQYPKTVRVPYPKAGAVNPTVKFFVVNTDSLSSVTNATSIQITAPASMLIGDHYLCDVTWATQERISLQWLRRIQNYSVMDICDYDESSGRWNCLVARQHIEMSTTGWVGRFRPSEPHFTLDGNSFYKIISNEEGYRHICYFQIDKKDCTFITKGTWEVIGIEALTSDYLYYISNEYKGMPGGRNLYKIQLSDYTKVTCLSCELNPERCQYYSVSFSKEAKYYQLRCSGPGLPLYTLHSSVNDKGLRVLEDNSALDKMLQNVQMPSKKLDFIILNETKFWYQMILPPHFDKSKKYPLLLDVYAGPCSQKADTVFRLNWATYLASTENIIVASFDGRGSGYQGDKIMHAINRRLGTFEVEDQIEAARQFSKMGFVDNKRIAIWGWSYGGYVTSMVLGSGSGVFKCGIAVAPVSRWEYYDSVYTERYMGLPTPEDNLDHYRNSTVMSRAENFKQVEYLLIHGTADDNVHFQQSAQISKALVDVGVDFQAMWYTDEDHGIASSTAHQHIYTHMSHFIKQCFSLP

Take `CC(C)(CC(=O)N1CCSC1)NCC(=O)N1C[C@@H](F)C[C@H]1C#N`: the values for the IC50 against Dipeptidyl peptidase 9 [1], on Dipeptidyl peptidase 4 [3] and against Dipeptidyl peptidase 8 were over 20000 nM, 27 nM and over 20000 nM, respectively. Also, the inhibition in vivo at 3 mg/kg worked out at 77% in the test listed under Rattus norvegicus [2] and 56% in the test filed under Rattus norvegicus [4].
Consider `CC(C)(CC(=O)Nc1ccccn1)NCC(=O)N1C[C@@H](F)C[C@H]1C#N`, for which the half-inhibitory concentration (IC50) is over 20000 nM at Dipeptidyl peptidase 9 [1]; 24 nM at Dipeptidyl peptidase 4 [5]; 19 nM against Dipeptidyl peptidase 4 [6]; 19 nM at Dipeptidyl peptidase 4 [3]; over 20000 nM at Dipeptidyl peptidase 8. For the same compound, the inhibition in vivo at 3 mg/kg in the test filed under Rattus norvegicus [2] was found to be 87%; in the test listed under Rattus norvegicus [4], 31%.
For the compound `C[C@@H]1CCCN1C(=O)CC(C)(C)NCC(=O)N1C[C@@H](F)C[C@H]1C#N`, the IC50 is over 20000 nM against Dipeptidyl peptidase 9 [1], 32 nM on Dipeptidyl peptidase 4 [3] and over 20000 nM against Dipeptidyl peptidase 8. The inhibition in vivo at 3 mg/kg in the test filed under Rattus norvegicus [2] is 75%; in the test filed under Rattus norvegicus [4] it was 48%.
With `CC(C)(CC(=O)N1CCCCC1)NCC(=O)N1C[C@@H](F)C[C@H]1C#N`, the IC50 was over 20000 nM at Dipeptidyl peptidase 9 [1], 14 nM at Dipeptidyl peptidase 4 [6], 27 nM at Dipeptidyl peptidase 4 [3] and over 20000 nM at Dipeptidyl peptidase 8. For the same compound, the inhibition in vivo at 3 mg/kg in the test filed under Rattus norvegicus [2] came to 86%; in the test listed under Rattus norvegicus [4] it was 74%.
Consider `CC(C)(CC(=O)N1CCCC1)NCC(=O)N1CCC[C@H]1C#N`, for which the IC50 on Dipeptidyl peptidase 9 [1] and against Dipeptidyl peptidase 8 was over 20000 nM each time.
Consider `CN1CCN(C(=O)CC(C)(C)NCC(=O)N2C[C@@H](F)C[C@H]2C#N)CC1`, for which, at Dipeptidyl peptidase 9 [7], the inhibition was 86%. Besides, the IC50 at Dipeptidyl peptidase 4 [3] is 93 nM; at Dipeptidyl peptidase 8 it was over 20000 nM.
In turn, `COc1ccc(NC(=O)CC(C)(C)NCC(=O)N2C[C@@H](F)C[C@H]2C#N)cc1OC` displayed an inhibition on Dipeptidyl peptidase 9 [7] of 73%. Besides, the results for the inhibition in vivo at 3 mg/kg in the test listed under Rattus norvegicus [2] and in the test listed under Rattus norvegicus [4] were 86% and 18%, respectively. The IC50 against Dipeptidyl peptidase 4 [3] was 27 nM; at Dipeptidyl peptidase 8 it was over 20000 nM.
`CC(C)(CC(=O)N1CC[C@@H](O)C1)NCC(=O)N1C[C@@H](F)C[C@H]1C#N`: the concentration for half-maximal inhibition (IC50) against Dipeptidyl peptidase 9 [1] is over 20000 nM; at Dipeptidyl peptidase 4 [5], 23 nM; on Dipeptidyl peptidase 4 [6], 21 nM; against Dipeptidyl peptidase 4 [3], 30 nM; against Dipeptidyl peptidase 8, over 20000 nM. Also, the values for the inhibition in vivo at 3 mg/kg in the test filed under Rattus norvegicus [2] and in the test listed under Rattus norvegicus [4] were 63% and 15%, respectively.
Consider `CC(C)(CC(=O)N1CCC[C@H]1CO)NCC(=O)N1C[C@@H](F)C[C@H]1C#N`, for which the IC50 was over 20000 nM against Dipeptidyl peptidase 9 [1], 24 nM on Dipeptidyl peptidase 4 [3] and over 20000 nM on Dipeptidyl peptidase 8.
On to `C#C[C@@H]1C[C@H](F)CN1C(=O)CC(C)(C)CC(=O)N[C@H]1C[C@@H]1c1cccc(Cl)c1`, for which the IC50 at Dipeptidyl peptidase 4 [5] is 210 nM; against Dipeptidyl peptidase 4 [6] it was 847 nM; against Dipeptidyl peptidase 2, over 100000 nM; against Prolyl endopeptidase FAP it was over 20000 nM; against Dipeptidyl peptidase 4 [3], 15 nM; against Dipeptidyl peptidase 8, over 20000 nM. In addition, the inhibition against Dipeptidyl peptidase 9 [7] is 72%. Also, the figures for the inhibition in vivo at 3 mg/kg in the test listed under Rattus norvegicus [2] and in the test filed under Rattus norvegicus [4] were 66% and 30%, respectively.
The compound `COc1ccc(NC(=O)CC(C)(C)NCC(=O)N2C[C@@H](F)C[C@H]2C#N)nc1` came in with an inhibition against Dipeptidyl peptidase 9 [7] of 61%. Further, the IC50 against Dipeptidyl peptidase 4 [6] is 18 nM; against Dipeptidyl peptidase 4 [3], 19 nM; on Dipeptidyl peptidase 8, over 20000 nM. Besides, the inhibition in vivo at 3 mg/kg in the test listed under Rattus norvegicus [2] was determined as 88%; in the test listed under Rattus norvegicus [4], 41%.
For `CC(C)(CC(=O)N1CC[C@@H](F)C1)NCC(=O)N1C[C@@H](F)C[C@H]1C#N`, the concentration for half-maximal inhibition (IC50) against Dipeptidyl peptidase 9 [1] and against Dipeptidyl peptidase 8 was over 20000 nM each time.
Regarding `CC(C)(CC(=O)N1CCN(S(C)(=O)=O)CC1)NCC(=O)N1C[C@@H](F)C[C@H]1C#N`, the half-inhibitory concentration (IC50) against Dipeptidyl peptidase 9 [1] was over 20000 nM; on Dipeptidyl peptidase 4 [6], 15 nM; against Dipeptidyl peptidase 4 [3], 24 nM; against Dipeptidyl peptidase 8 it was over 20000 nM. Also, the inhibition in vivo at 3 mg/kg in the test filed under Rattus norvegicus [2] turned out to be 64%; in the test listed under Rattus norvegicus [4] it was 7%.
Regarding `N[C@@H](CC(=O)N1CCn2c(nnc2C(F)(F)F)C1)Cc1cc(F)c(F)cc1F` [SITAGLIPTIN], the inhibition in vivo at 3 mg/kg is 30% in the test listed under Rattus norvegicus [2] and 20% in the test listed under Rattus norvegicus [4].
`CC(C)(CC(=O)N1C2CCC1CC2)NCC(=O)N1C[C@@H](F)C[C@H]1C#N`: the values for the IC50 against Dipeptidyl peptidase 9 [1], at Dipeptidyl peptidase 4 [3] and against Dipeptidyl peptidase 8 were over 20000 nM, 66 nM and over 20000 nM, respectively.
In the case of `CCOC(=O)N1CCN(C(=O)CC(C)(C)NCC(=O)N2C[C@@H](F)C[C@H]2C#N)CC1`, the results for the half-maximal inhibitory concentration (IC50) at Dipeptidyl peptidase 9 [1], at Dipeptidyl peptidase 4 [3] and against Dipeptidyl peptidase 8 were over 20000 nM, 63 nM and over 20000 nM, respectively.
On to `COc1ccc(NC(=O)CC(C)(C)NCC(=O)N2CCC[C@H]2C#N)cc1OC`, for which the IC50 on Dipeptidyl peptidase 9 [1] is over 20000 nM; against Dipeptidyl peptidase 2, over 20000 nM; against Prolyl endopeptidase FAP it was over 50000 nM; against Dipeptidyl peptidase 8, over 50000 nM.
In turn, `CC(C)(CC(=O)N1CC=CCC1)NCC(=O)N1C[C@@H](F)C[C@H]1C#N` gave an inhibition against Dipeptidyl peptidase 9 [7] of 50%. Besides, the inhibition in vivo at 3 mg/kg stood at 85% in the test filed under Rattus norvegicus [2] and 70% in the test listed under Rattus norvegicus [4]. Also, the IC50 is 18 nM against Dipeptidyl peptidase 4 [3] and over 20000 nM at Dipeptidyl peptidase 8.
Regarding `CC(C)(CC(=O)NC1CCCC1)NCC(=O)N1C[C@@H](F)C[C@H]1C#N`, the IC50 is over 20000 nM against Dipeptidyl peptidase 9 [1], 29 nM at Dipeptidyl peptidase 4 [3] and over 20000 nM on Dipeptidyl peptidase 8. Moreover, the inhibition in vivo at 3 mg/kg in the test filed under Rattus norvegicus [2] was 81%; in the test filed under Rattus norvegicus [4], 60%.
`N#C[C@@H]1CCCN1C(=O)CNC12CC3CC(CC(O)(C3)C1)C2` [VILDAGLIPTIN]: the results for the inhibition in vivo at 3 mg/kg in the test listed under Rattus norvegicus [2] and in the test filed under Rattus norvegicus [4] were 84% and 73%, respectively.
For the compound `CC(C)(CC(=O)N1CC[C@@H](O)C1)NCC(=O)N1CCC[C@H]1C#N`, the IC50 on Dipeptidyl peptidase 9 [1] is over 20000 nM; against Dipeptidyl peptidase 4 [3], 180 nM; against Dipeptidyl peptidase 8, over 20000 nM.
At Dipeptidyl peptidase 9 [1], `CC(C)(CC(=O)N1Cc2ccccc2C1)NCC(=O)N1CCC[C@H]1C#N` registered an IC50 of over 100000 nM. In addition, in the test listed under Mus musculus, the inhibition in vivo at 18 mg/kg is over 80%.
As to `CC(C)(CC(=O)N1CCOCC1)NCC(=O)N1C[C@@H](F)C[C@H]1C#N`, the concentration for half-maximal inhibition (IC50) at Dipeptidyl peptidase 9 [1] was over 20000 nM; on Dipeptidyl peptidase 4 [5] it was 14 nM; against Dipeptidyl peptidase 4 [6], 13 nM; against Dipeptidyl peptidase 4 [3], 20 nM; at Dipeptidyl peptidase 8, over 20000 nM. In addition, the inhibition in vivo at 3 mg/kg came to 89% in the test filed under Rattus norvegicus [2] and 59% in the test filed under Rattus norvegicus [4].
As for `CC(C)(CC(=O)N1CCCCCC1)NCC(=O)N1C[C@@H](F)C[C@H]1C#N`, the IC50 against Dipeptidyl peptidase 9 [1] is over 20000 nM; at Dipeptidyl peptidase 4 [3], 160 nM; at Dipeptidyl peptidase 8, over 20000 nM.
`CC(C)(CC(=O)N1CC[C@H](O)C1)NCC(=O)N1C[C@@H](F)C[C@H]1C#N`: the IC50 was over 20000 nM on Dipeptidyl peptidase 9 [1], 50 nM against Dipeptidyl peptidase 4 [3] and over 20000 nM against Dipeptidyl peptidase 8.
Take `CC(C)(CC(=O)N1CCC(=O)CC1)NCC(=O)N1C[C@@H](F)C[C@H]1C#N`: the half-maximal inhibitory concentration (IC50) was over 20000 nM at Dipeptidyl peptidase 9 [1], 26 nM against Dipeptidyl peptidase 4 [3] and over 20000 nM on Dipeptidyl peptidase 8.
